For one data set, the system named is Escherichia coli W3110. Format: cell-based. The note with it: for Ec W3110 MIC MH: E. coli W3110, MH medium; for Ec W3110 MIC RPMI: E. coli W3110, RPMI medium.
The test system of data set [1] is Single-donor human red blood cells. The data set is described as follows: Hemolysis assay. The format is cell-based. The method, then: Single-donor human red blood cells (Innovative Research, no. IWB3ALS) were washed in PBS and adjusted to a concentration of 1 × 10^9 cells/ml. Each peptide was added individually to 200 μl of cells at a concentration of either 300 μg/ml (SySA library) or 128 μg/ml (SySA-5 optimization library) in a 96-well polypropylene plate (Corning, 3879). PBS alone and 1% Triton X-100 were used for background normalization and 100% hemolysis, respectively. Each reaction was set up in triplicate. Plates were incubated for 3 hours at 37°C. Following incubation, samples were centrifuged at 800g for 20 min, and 100 μl of supernatant was transferred to a flat-bottom 96-well plate (Genesse, 25-104). Percent hemolysis for each sample was determined by normalizing the absorbance at 540 nm for each sample to the average background and dividing by the average absorbance for 1% Triton X-100 (100% hemolysis). Error bars represent 1 SD of triplicate samples.

Read-outs that look alike come from different tables or passages of the source. Bridge positions count the residues as written; N and C are the ends. Ends that are not written are not given here. Peptide text beside a SMILES is read from it.

Experimental for Escherichia coli W3110: MICs were performed by a modifiedClinical and Laboratory Standards Institute) procedure. […] Separately, E. coli W3110 or A. baumannii AB5075 was grown overnight in 5 ml of standard MH at 37°C. Cells from these cultures were diluted to a concentration of 5 × 10^5 to 6 × 10^5 cells/ml in either standard MH, MHII, RPMI, or fetal bovine serum, and 90 μl was added to each well of the 96-well plate containing diluted peptide. Plates were wrapped twice in parafilm and incubated at 37°C for 18 to 24 hours. Wells were examined by eye against wells with no bacteria for signs of growth. MICs were reported as the minimum concentration with no observable growth. In cases where triplicate samples differed, the concentration supported by the median of the three replicates was reported.

For `CC[C@H](C)[C@@H]1NC(=O)[C@H](CCCNC(=N)N)NC(=O)[C@H](CC(C)C)NC(=O)[C@H](CCCNC(=N)N)NC(=O)CNC(=O)[C@H](CCCNC(=N)N)NC(=O)[C@H](CCCNC(=N)N)NC(=O)[C@H](CC(=O)O)NC(=O)[C@H](CC(=O)O)NC(=O)[C@H](CC(C)C)NC(=O)[C@H](CCCNC(=N)N)NC(=O)[C@H](C(C)C)NC(=O)[C@H](CCCNC(=N)N)NC(=O)[C@H](CC(C)C)NC(=O)[C@@H](N)CSSC[C@@H](C(=O)O)NC(=O)[C@H](C(C)C)NC(=O)[C@H](CCC(N)=O)NC(=O)[C@H](CC(C)C)NC(=O)[C@H](CO)NC1=O` [SyPA-9] (H-CLRVRLDDRRGRLRISLQVC-OH; disulfide 1-20), the “W3110 MIC” value with Escherichia coli W3110 (W3110) was found to be 64 µg/mL. The “%Hemo” value in data set [1] is recorded as 11.36%.
In the data set on Escherichia coli W3110, “CVRIRLNNGGSGVKVTVEVC (disulfide 1-20 (inferred)) [SySA-85]” yielded an Ec W3110 MIC MH of more than 256 µg/mL and an Ec W3110 MIC RPMI of more than 256 µg/mL. In addition, in data set [1], the hemolysis is given as 1.81%.
In the data set on Escherichia coli W3110, “CLTVRVNNRGSGVKVSLEVC (disulfide 1-20 (inferred)) [SySA-54]” yielded an Ec W3110 MIC MH of more than 256 µg/mL and an Ec W3110 MIC RPMI of more than 256 µg/mL. In addition, the hemolysis in data set [1] amounted to 1.51%.
In the data set on Escherichia coli W3110, “CLRVRVNNRRSGVRVTLEVC (disulfide 1-20 (inferred)) [SySA-67]” displayed an Ec W3110 MIC MH of more than 256 µg/mL and an Ec W3110 MIC RPMI of more than 256 µg/mL. Moreover, in data set [1], the hemolysis is given as 0.70%.
“CVRVRVNNRGGGVRITLQVC (disulfide 1-20 (inferred)) [SySA-24]”: in the data set with Escherichia coli W3110, the Ec W3110 MIC MH is more than 256 µg/mL and the Ec W3110 MIC RPMI is more than 256 µg/mL. Moreover, in data set [1], the hemolysis is listed as 0.38%.
Take “CLRIRVNNRGSGLRISVEVC (disulfide 1-20 (inferred)) [SySA-22]”: in the data set on Escherichia coli W3110, the Ec W3110 MIC MH was more than 256 µg/mL and the Ec W3110 MIC RPMI was more than 256 µg/mL. For the same molecule, the hemolysis in data set [1] is listed as 0.48%.
For “CLRIRLNNRGRGVKVSVEVC (disulfide 1-20 (inferred)) [SySA-46]”, in the data set on Escherichia coli W3110, the Ec W3110 MIC MH was more than 256 µg/mL and the Ec W3110 MIC RPMI was more than 256 µg/mL. The hemolysis in data set [1] turned out to be 0.47%.
Take “CLRVRVDNGGSRLKITLEVC (disulfide 1-20 (inferred)) [SySA-75]”: in the data set on Escherichia coli W3110, the Ec W3110 MIC MH is more than 256 µg/mL and the Ec W3110 MIC RPMI is more than 256 µg/mL. Also, the hemolysis in data set [1] is recorded as 2.18%.
On to “CVRVRVDNRGSRVKVTVQVC (disulfide 1-20 (inferred)) [SySA-12]”, for which, in the data set with Escherichia coli W3110, the Ec W3110 MIC MH is more than 256 µg/mL and the Ec W3110 MIC RPMI was more than 256 µg/mL. In data set [1], the hemolysis is 0.30%.
Regarding “CVTVRVNNRGRGLRISLQVC (disulfide 1-20 (inferred)) [SySA-47]”, in the data set on Escherichia coli W3110, the Ec W3110 MIC MH was more than 256 µg/mL and the Ec W3110 MIC RPMI is more than 256 µg/mL. The hemolysis in data set [1] worked out at 0.48%.
In the data set on Escherichia coli W3110, “CRIRVNINNRRRTLRLEVEC (disulfide 1-20 (inferred)) [SySA-35]” gave an Ec W3110 MIC MH of more than 256 µg/mL and an Ec W3110 MIC RPMI of more than 256 µg/mL. Besides, the hemolysis in data set [1] was 0.12%.
In the data set with Escherichia coli W3110, “CRVKINVNNRGRTLKLELEC (disulfide 1-20 (inferred)) [SySA-58]” yielded an Ec W3110 MIC MH of more than 256 µg/mL and an Ec W3110 MIC RPMI of more than 256 µg/mL. Further, in data set [1], the hemolysis came out at 0.000315%.
In the data set with Escherichia coli W3110, “CLTVRVNNRRSGVRVSVQVC (disulfide 1-20 (inferred)) [SySA-43]” had an Ec W3110 MIC MH of more than 256 µg/mL and an Ec W3110 MIC RPMI of more than 256 µg/mL. In addition, in data set [1], the hemolysis turned out to be 0.11%.
“CRVRININNRSRTLKLELEC (disulfide 1-20 (inferred)) [SySA-68]”: in the data set on Escherichia coli W3110, the Ec W3110 MIC MH is more than 256 µg/mL and the Ec W3110 MIC RPMI was more than 256 µg/mL. Moreover, the hemolysis in data set [1] came to 0.47%.
For “CRVKVNINNGSRRLRLQVQC (disulfide 1-20 (inferred)) [SySA-50]”, in the data set with Escherichia coli W3110, the Ec W3110 MIC MH was more than 256 µg/mL and the Ec W3110 MIC RPMI was more than 256 µg/mL. For the same molecule, the hemolysis in data set [1] was 0.34%.
In the data set on Escherichia coli W3110, “CRVRININNGGRRVKLEVQC (disulfide 1-20 (inferred)) [SySA-32]” came in with an Ec W3110 MIC MH of more than 256 µg/mL and an Ec W3110 MIC RPMI of more than 256 µg/mL. The hemolysis in data set [1] is 0.0319%.
In the data set on Escherichia coli W3110, “CRIRIDVNNGSGRLKLQLEC (disulfide 1-20 (inferred)) [SySA-21]” came in with an Ec W3110 MIC MH of more than 256 µg/mL and an Ec W3110 MIC RPMI of more than 256 µg/mL. Besides, in data set [1], the hemolysis is on record as 0.42%.
In the data set on Escherichia coli W3110, “CLRIRVDNRGSGVKVTLEVC (disulfide 1-20 (inferred)) [SySA-57]” returned an Ec W3110 MIC MH of more than 256 µg/mL and an Ec W3110 MIC RPMI of more than 256 µg/mL. For the same molecule, the hemolysis in data set [1] came out at 0.25%.
As to “CLTIRVDNRGSRVRITLEVC (disulfide 1-20 (inferred)) [SySA-70]”, in the data set with Escherichia coli W3110, the Ec W3110 MIC MH was more than 256 µg/mL and the Ec W3110 MIC RPMI is more than 256 µg/mL. Also, the hemolysis in data set [1] was 0.92%.
Take “CLTVRVDNRGSRLKVTVEVC (disulfide 1-20 (inferred)) [SySA-55]”: in the data set on Escherichia coli W3110, the Ec W3110 MIC MH is more than 256 µg/mL and the Ec W3110 MIC RPMI is more than 256 µg/mL. Moreover, in data set [1], the hemolysis is recorded as -0.10%.
In the data set with Escherichia coli W3110, “CLTIRVNNRRGRVRISVQVC (disulfide 1-20 (inferred)) [SySA-15]” had an Ec W3110 MIC MH of more than 256 µg/mL and an Ec W3110 MIC RPMI of more than 256 µg/mL. In data set [1], the hemolysis is 0.80%.
As to “CLRIRLNNRRSRVRISVEVC (disulfide 1-20 (inferred)) [SySA-52]”, in the data set with Escherichia coli W3110, the Ec W3110 MIC MH is more than 256 µg/mL and the Ec W3110 MIC RPMI was more than 256 µg/mL. The hemolysis in data set [1] amounted to 9.99%.
In the data set with Escherichia coli W3110, “CRIRINVNNGSGRVRLELEC (disulfide 1-20 (inferred)) [SySA-77]” had an Ec W3110 MIC MH of more than 256 µg/mL and an Ec W3110 MIC RPMI of more than 256 µg/mL. Moreover, the hemolysis in data set [1] is recorded as 0.32%.
In the data set with Escherichia coli W3110, “CVTIRLNDGGSGLKISLQVC (disulfide 1-20 (inferred)) [SySA-23]” registered an Ec W3110 MIC MH of more than 256 µg/mL and an Ec W3110 MIC RPMI of more than 256 µg/mL. Moreover, the hemolysis in data set [1] is given as -0.03%.
For the molecule “CRVRVNINNGSGRVKLELEC (disulfide 1-20 (inferred)) [SySA-19]”, in the data set with Escherichia coli W3110, the Ec W3110 MIC MH was more than 256 µg/mL and the Ec W3110 MIC RPMI is more than 256 µg/mL. Besides, in data set [1], the hemolysis was found to be 0.33%.
As for `NC[C@H]1O[C@H](O[C@H]2[C@H](O)[C@@H](O[C@H]3O[C@H](CO)[C@@H](O)[C@H](N)[C@H]3O)[C@H](N)C[C@@H]2N)[C@H](O)[C@@H](O)[C@@H]1O` [kanamycin, reference compound], in the data set with Escherichia coli W3110, the Ec W3110 MIC MH is 1 µg/mL. Further, in the data set with Escherichia coli W3110 (E. coli W3110, MHII medium), the W3110 MIC MHII amounted to 2 µg/mL. In addition, the “fold increase in MHII MIC relative to standard MH” value in the data set with Escherichia coli W3110 (cation-adjusted MH (MHII) vs standard MH) was “twofold”. The “Hemolysis (%)” value in data set [1] (human red blood cells 1x10^9 cells/ml, peptide 300 μg/ml, 3 h 37°C, relative to 1% Triton X-100, A540, ± 1 SD, n=3) is listed as 0.1 ± 0.03%. For the same molecule, the hemolysis in data set [1] (human red blood cells, st dev in separate column) is reported as 0.0147%.
`CC(C)C[C@@H]1NC(=O)CNC(=O)[C@H](CCCNC(=N)N)NC(=O)[C@H](CCCNC(=N)N)NC(=O)[C@H](CCCNC(=N)N)NC(=O)[C@H](CC(N)=O)NC(=O)[C@H](CC(N)=O)NC(=O)[C@H](CC(C)C)NC(=O)[C@H](CCCNC(=N)N)NC(=O)[C@H](C(C)C)NC(=O)[C@H]([C@@H](C)O)NC(=O)[C@H](C(C)C)NC(=O)[C@@H](N)CSSC[C@@H](C(=O)O)NC(=O)[C@H](C(C)C)NC(=O)[C@H](CCC(N)=O)NC(=O)[C@H](CC(C)C)NC(=O)[C@H](CO)NC(=O)[C@H](C(C)C)NC(=O)[C@H](CCCNC(=N)N)NC1=O` [SyPA-2] (H-CVTVRLNNRRRGLRVSLQVC-OH; disulfide 1-20): the “%Hemo” value in data set [1] stood at 3.75%.

Source of the values: article PMC9833666, “Designing and identifying β-hairpin peptide macrocycles with antibiotic potential” (Science Advances, 2023).
